This is an account of results in article PMC10818259, “Antioxidant and Inhibitory Activities of Filipendula glaberrima Leaf Constituents against HMG-CoA Reductase and Macrophage Foam Cell Formation” (Molecules, 2024).

The IC50 is the concentration at which inhibition is half-maximal.

Experiment [1] is described as follows: Superoxide anion radical scavenging assay (xanthine/xanthine oxidase, NBT). The format is biochemical. The conditions noted are these: isolates and standards; mean ± SD, n = 3; read-out: Antioxidant Activity (IC50) Superoxide Anion Radical. The source says: Superoxide anion radical scavenging assay.
The subject of experiment [2] is lipid peroxidation in liver homogenate. Put plainly: Inhibitory effect on lipid peroxidation (LPO) in liver homogenate, TBARS. Particulars: isolates and standards; rat liver homogenate; mean ± SD, n = 3; read-out: Antioxidant Activity (IC50) LPO. The format is biochemical, Sprague Dawley rats. From the text: Assay for inhibitory effect of lipid peroxidation. Male Sprague Dawley rats were used in the […]
Technology (approval number: […]-2018-081). Experimental animals were […]
anesthetized with isoflurane and dissected. A 0.15 M ice-cold KCl solution was perfused through the liver portal vein to remove blood from the liver and extract the liver. The liver was homogenized in KCl solution at 10 times the liver’s weight , and the protein concentration was quantified by the Bradford protein method using bovine serum albumin as a standard. A lipid peroxidation test was performed using a slightly modified version of the method described.
Reaction mixtures consisted of 300 μL of liver ho mogenate (11 mg protein/mL) , 300 μL of 50 mM Tris -HCl buffer (pH 7.5) containing 10 μM FeSO 4, and 0.4 mM ascorbic acid. Test samples (10 μL) or DMSO blanks were added to the reaction mixture and incubated at 37 °C for 30 min. After incubation, lipid peroxidation was measured by forming thiobarbituric acid reactive substance s. The mixture was subjected to a reaction at 90 °C for 30 min, followed by cooling and subsequent centrifugation (5,000 × g) for 10 min. The absorbance of the resulting supernatant was d etermined at 535 nm, and the percentage of lipid peroxidation inhibition by the sample was computed. DMSO was utilized as a control instead of the test drug, and the […]

In a further experiment the target is T1, HMG-CoA reductase (HMGR) (Homo sapiens, UniProt P04035).
T1 sequence (P04035 426-888 limits assumed): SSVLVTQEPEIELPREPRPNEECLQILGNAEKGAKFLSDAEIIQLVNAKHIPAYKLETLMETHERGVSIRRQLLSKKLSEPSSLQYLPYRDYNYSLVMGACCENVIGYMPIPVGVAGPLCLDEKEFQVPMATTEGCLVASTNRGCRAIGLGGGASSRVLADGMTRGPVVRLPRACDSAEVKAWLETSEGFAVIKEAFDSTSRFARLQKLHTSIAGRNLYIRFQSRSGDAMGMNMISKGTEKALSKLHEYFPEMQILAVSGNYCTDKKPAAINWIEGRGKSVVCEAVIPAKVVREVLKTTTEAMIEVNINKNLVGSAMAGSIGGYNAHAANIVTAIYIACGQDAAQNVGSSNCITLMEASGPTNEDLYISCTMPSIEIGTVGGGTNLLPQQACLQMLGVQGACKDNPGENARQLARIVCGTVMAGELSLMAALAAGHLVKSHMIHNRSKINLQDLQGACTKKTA
Put plainly: HMG-CoA reductase (HMGR) inhibition assay, NADPH oxidation at 340 nm. The format is biochemical. As to the method:
The HMGR activity assay was optimized using a 96-well microplate reader to measure nicotinamide adenine dinucleotide phosphate (NADPH) oxidation during enzyme turnover. Each well was loaded with a mixture comprising 89 μL of 50 mM sodium phosphate buffer (pH 6.8), 0.8 mM NADPH, and 2 μg of the enzyme (2–8 units/mg). To initiate the reaction, 1 μL of the test sample and 10 μL of 0.8 mM HMG-CoA were introduced to the well. […] The activity of HMGR was assessed by monitoring the reduction in NADPH absorbance at 340 nm for a duration of 900 s at 37 °C.

A short description of experiment [3]: DPPH radical scavenging assay. Particulars: read-out: Antioxidant Activity (IC50) DPPH, isolates and standards, mean ± SD, n = 3.
Protocol: As positive controls, ascorbic acid, quercetin, resveratrol, and Trolox were employed. Triplicate measurements were performed for each sample, and the mean values were determined.
The extracts and isolates were dissolved in dimethyl sulfoxide (DMSO) at concentrations
ranging from 0.1 to 10 mg/mL and 0.1 to 10 mM, respectively. Subsequently, they were
combined with an ethanol solution of DPPH (100 μM). The DPPH solution (190 μL per well)
and the samples (10 μL per well) were incubated in a 96-well microplate at 37 °C for 30 minutes
under dark conditions. The absorbance at 515 nm was quantified using a microplate reader, and
the percentage inhibition (%) of each sample was calculated by comparing it with the control
group treated with DMSO. Linear regression analysis was employed to estimate the IC50 values,
which indicated the concentration of test samples required to inhibit 50% of the free radicals.
Experiment [4] relates to THP-1 macrophage foam cells. The experiment in a line: ox-LDL-induced macrophage foam cell formation, Oil Red O staining. The format is cell-based. The conditions noted are these: Homo sapiens, 50 μg/mL ox-LDL, 16 h, positive control, read-out: Inhibitory effect on foam cell formation.
Protocol: This approach aimed to examine the impact of these substances on lipid accumulation and the formation of foam cells. First, we observed the effects of different concentrations (20, 40, and 60 μg/mL) of the solvent extracts on the THP-1 macrophage activity. […] As a result, we selected and optimized the concentration of 50 μg/mL for the solvent extract to be used in the subsequent experiments. […] Following the extraction of the intracellular dye using isopropanol, a quantitative assessment of the intracellular lipid content was conducted.
THP-1 cells (ATCC, TIB-202, Manassas, VA, USA) were obtained and maintained in RPMI-1640 medium (Cytiva, UT, USA), supplemented with 10% fetal bovine serum (FBS; Hyclone, Cytiva, Logan, UT, USA), penicillin (100 U/mL), streptomycin (100 μg/mL), and 2-mercaptoethanol (Sigma-Aldrich, Saint Louis, MO, USA) at a final concentration of 0.05 mM. The cells were cultured at 37 °C in a 5% CO2 atmosphere with humidity. The THP-1 cells in the suspension were treated with 50 nM phorbol-12-myristate-13-acetate (Sigma-Aldrich, USA) for 48 h. […]
THP-1 cells were seeded in 24-well plates at a density of 5 × 10^5 cells/mL and pretreated as described above. […] The absorbance at 450 nm was measured using a multi-plate reader (Synergy Neo, BioTek Instruments, Inc., Winooski, VT, USA) and statistically processed.

Consider `COC(=O)c1cc(O)c(O)c(O)c1Oc1cc2c(c(O)c1O)-c1c(cc(O)c(O)c1O)C(=O)OC1C(COC2=O)OC(O)C(OC(=O)c2cc(O)c(O)c(O)c2)C1OC(=O)c1cc(O)c(O)c(O)c1` (stereo not shown) [Compound 1, Rugosin B methyl ester], for which the IC50 in experiment [1] came out at 4.29 ± 0.23 µM; in experiment [2], 3.54 ± 0.29 µM; against HMG-CoA reductase (HMGR) it was 1.46 ± 0.22 µM; in experiment [3], 3.62 ± 0.57 µM.
Taken in the same sequence, the figures for `O=C(OC1C(O)OC2COC(=O)c3cc(Oc4c(C(=O)O)cc(O)c(O)c4O)c(O)c(O)c3-c3c(cc(O)c(O)c3O)C(=O)OC2C1OC(=O)c1cc(O)c(O)c(O)c1)c1cc(O)c(O)c(O)c1` (stereo not shown) [Compound 2, rugosin B] were 5.53 ± 0.21 µM, 6.02 ± 0.14 µM, 17.7 ± 0.04 µM and 3 ± 0.08 µM.
For the compound `COC(=O)c1cc(O)c(O)c(O)c1Oc1cc2c(c(O)c1O)-c1c(cc(O)c(O)c1O)C(=O)O[C@H]1[C@H](OC(=O)c3cc(O)c(O)c(O)c3)[C@@H](OC(=O)c3cc(O)c(O)c(O)c3)[C@H](OC(=O)c3cc(O)c(O)c(O)c3)O[C@@H]1COC2=O` [Compound 3, rugosin A methyl ester], the IC50 was 4.25 ± 0.11 µM in experiment [1], 3.83 ± 0.52 µM in experiment [2], 8.4 ± 0.84 µM against HMG-CoA reductase (HMGR) and 4.27 ± 0.45 µM in experiment [3].
Taken in the same sequence, the figures for `O=C(O[C@@H]1O[C@@H]2COC(=O)c3cc(Oc4c(C(=O)O)cc(O)c(O)c4O)c(O)c(O)c3-c3c(cc(O)c(O)c3O)C(=O)O[C@H]2[C@H](OC(=O)c2cc(O)c(O)c(O)c2)[C@H]1OC(=O)c1cc(O)c(O)c(O)c1)c1cc(O)c(O)c(O)c1` [Compound 4, rugosin A] were 3.21 ± 0.05 µM, 3.75 ± 0.52 µM, 12.2 ± 0.5 µM and 3.19 ± 0.13 µM.
Taken in the same sequence, the figures for `O=C(O[C@@H]1O[C@@H]2COC(=O)c3cc(O)c(O)c(O)c3-c3c(cc(O)c(O)c3O)C(=O)O[C@H]2[C@H](OC(=O)c2cc(O)c(O)c(O)c2)[C@H]1OC(=O)c1cc(O)c(O)c(O)c1)c1cc(O)c(O)c(O)c1` [Compound 5, eugeniin] were 4.75 ± 0.14 µM, 3.61 ± 0.34 µM, 26.7 ± 0.9 µM and 4.34 ± 0.17 µM.
Taken in the same sequence, the figures for `O=C(OC1C(O)OC2COC(=O)c3cc(O)c(O)c(O)c3-c3c(cc(O)c(O)c3O)C(=O)OC2C1OC(=O)c1cc(O)c(O)c(O)c1)c1cc(O)c(O)c(O)c1` (stereo not shown) [Compound 6, tellimagrandin I] were 4.1 ± 0.53 µM, 3.93 ± 0.53 µM, above 50 µM and 4.7 ± 0.14 µM.
Consider `O=C(OC[C@H]1O[C@@H](OC(=O)c2cc(O)c(O)c(O)c2)[C@H](OC(=O)c2cc(O)c(O)c(O)c2)[C@@H](OC(=O)c2cc(O)c(O)c(O)c2)[C@@H]1OC(=O)c1cc(O)c(O)c(O)c1)c1cc(O)c(O)c(O)c1` [Compound 7, 1,2,3,4,6-penta-O-galloyl-β-D-glucose], for which the IC50 was found to be 4.47 ± 0.07 µM in experiment [1], 3.87 ± 0.61 µM in experiment [2], 4.98 ± 0.18 µM against HMG-CoA reductase (HMGR) and 3.81 ± 0.19 µM in experiment [3].
For `O=C(OC[C@H]1OC(O)[C@H](OC(=O)c2cc(O)c(O)c(O)c2)[C@@H](OC(=O)c2cc(O)c(O)c(O)c2)[C@@H]1OC(=O)c1cc(O)c(O)c(O)c1)c1cc(O)c(O)c(O)c1` (stereo partly drawn) [Compound 8, 2,3,4,6-tetra-O-galloyl-D-glucose], in that order: 3.6 ± 0.23 µM, 3.54 ± 0.15 µM, 13.8 ± 1.53 µM and 20.9 ± 0.98 µM.
In the case of `O=C(OC[C@H]1O[C@@H](OC(=O)c2cc(O)c(O)c(O)c2)[C@H](OC(=O)c2cc(O)c(O)c(O)c2)[C@@H](OC(=O)c2cc(O)c(O)c(O)c2)[C@@H]1O)c1cc(O)c(O)c(O)c1` [Compound 9, 1,2,3,6-tetra-O-galloyl-β-D-glucose], the IC50 in experiment [1] came to 4.64 ± 0.45 µM; in experiment [2] it was 5.88 ± 0.13 µM; at HMG-CoA reductase (HMGR) it was 41.5 ± 3.9 µM; in experiment [3], 3.94 ± 0.25 µM. Besides, on HMG-CoA reductase (HMGR), the “HMGR inhibition, result in words” value is listed as “weak effect”.
On to `O=C(O)[C@H]1O[C@@H](Oc2c(-c3ccc(O)c(O)c3)oc3cc(O)cc(O)c3c2=O)[C@H](O)[C@@H](O)[C@@H]1O` [Compound 10, quercetin 3-glucuronic acid], for which the IC50 is 21.5 ± 2.03 µM in experiment [1], 34.1 ± 2.98 µM in experiment [2], above 50 µM on HMG-CoA reductase (HMGR) and 15.7 ± 0.15 µM in experiment [3].
For `O=C(O)[C@H]1O[C@@H](Oc2c(O)cc(O)c3c(=O)c(O)c(-c4ccc(O)cc4)oc23)[C@H](O)[C@@H](O)[C@@H]1O` [Compound 11, kaempferol 8-O-glucuronic acid], in that order: 17.7 ± 0.3 µM, above 50 µM, above 50 µM and 23 ± 0.45 µM.
`CC[C@H](C)C(=O)O[C@H]1C[C@H](O)C=C2C=C[C@H](C)[C@H](CC[C@@H](O)C[C@@H](O)CC(=O)O)[C@H]21` [Pravastatin]: the inhibition at 5 µM in experiment [4] came to 77%.
Consider `O=c1c(O)c(-c2ccc(O)c(O)c2)oc2cc(O)cc(O)c12` [Quercetin, reference compound], for which the IC50 in experiment [1] worked out at 21.3 ± 0.34 µM; in experiment [2], 7.45 ± 1.33 µM; in experiment [3], 17.3 ± 1.09 µM; in experiment [3] (listed as quercetin), 42.1 µM.
In the case of `Oc1ccc(/C=C/c2cc(O)cc(O)c2)cc1` [Resveratrol, reference compound], the IC50 in experiment [1] is above 50 µM; in experiment [2], 47.6 ± 6.35 µM; in experiment [3], 42.1 ± 1.91 µM.
On to `Cc1c(C)c2c(c(C)c1O)CCC(C)(C(=O)O)O2` (stereo not shown) [Trolox, reference compound], for which the IC50 in experiment [1] was above 50 µM; in experiment [2], 33.2 ± 3.6 µM; in experiment [3] it was 31.3 ± 1.27 µM.
`O=C1O[C@H]([C@@H](O)CO)C(O)=C1O` [Vitamin C, ascorbic acid, reference compound]: the figures for the IC50 in experiment [1] and in experiment [3] were above 50 µM and 31.7 ± 0.21 µM, respectively.
